# Assay results reported in patent publication US20240067668A1, “HETEROARYL DERIVATIVE COMPOUND AND USE THEREOF” (VORONOI INC., priority 2020, published 2024).
# Tests used:
# EGFR Del19/T790M/C797S = EGFR Del19/T790M/C797S (Homo sapiens, UniProt P00533, C797S/T790M, form not given); experiment: Enzyme IC50, EGFR Del19/T790M/C797S; assay type: biochemical
# [1] = test system: BaF3-EGFR (Del19/T790M/C797S) cells; experiment: Inhibitory activity on Ba/F3 cell proliferation (CellTiter-Glo, 72 hours); assay type: cell-based; conditions: Ba/F3 cells expressing EGFR Del19/T790M/C797S
# Procedure, shortened: (§1)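 Ba/F3 cells expressing wild-type EGFR or EGFR Del19/T790M/C797S, 3×10^3 per well, exposed 72 h at 37 °C to compound at 12 threefold dilutions, 0.00005-10 μM final. Viability by CellTiter-Glo 2.0; GI50 derived from growth relative to DMSO-treated cells.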
# BaF3-EGFR (WT) cells = experiment: as above; assay type: cell-based; conditions: Ba/F3 cells expressing EGFR WT
# Procedure, shortened: as §1
# Sequence of EGFR Del19/T790M/C797S (P00533 25-1210 T790M/C797S, form open): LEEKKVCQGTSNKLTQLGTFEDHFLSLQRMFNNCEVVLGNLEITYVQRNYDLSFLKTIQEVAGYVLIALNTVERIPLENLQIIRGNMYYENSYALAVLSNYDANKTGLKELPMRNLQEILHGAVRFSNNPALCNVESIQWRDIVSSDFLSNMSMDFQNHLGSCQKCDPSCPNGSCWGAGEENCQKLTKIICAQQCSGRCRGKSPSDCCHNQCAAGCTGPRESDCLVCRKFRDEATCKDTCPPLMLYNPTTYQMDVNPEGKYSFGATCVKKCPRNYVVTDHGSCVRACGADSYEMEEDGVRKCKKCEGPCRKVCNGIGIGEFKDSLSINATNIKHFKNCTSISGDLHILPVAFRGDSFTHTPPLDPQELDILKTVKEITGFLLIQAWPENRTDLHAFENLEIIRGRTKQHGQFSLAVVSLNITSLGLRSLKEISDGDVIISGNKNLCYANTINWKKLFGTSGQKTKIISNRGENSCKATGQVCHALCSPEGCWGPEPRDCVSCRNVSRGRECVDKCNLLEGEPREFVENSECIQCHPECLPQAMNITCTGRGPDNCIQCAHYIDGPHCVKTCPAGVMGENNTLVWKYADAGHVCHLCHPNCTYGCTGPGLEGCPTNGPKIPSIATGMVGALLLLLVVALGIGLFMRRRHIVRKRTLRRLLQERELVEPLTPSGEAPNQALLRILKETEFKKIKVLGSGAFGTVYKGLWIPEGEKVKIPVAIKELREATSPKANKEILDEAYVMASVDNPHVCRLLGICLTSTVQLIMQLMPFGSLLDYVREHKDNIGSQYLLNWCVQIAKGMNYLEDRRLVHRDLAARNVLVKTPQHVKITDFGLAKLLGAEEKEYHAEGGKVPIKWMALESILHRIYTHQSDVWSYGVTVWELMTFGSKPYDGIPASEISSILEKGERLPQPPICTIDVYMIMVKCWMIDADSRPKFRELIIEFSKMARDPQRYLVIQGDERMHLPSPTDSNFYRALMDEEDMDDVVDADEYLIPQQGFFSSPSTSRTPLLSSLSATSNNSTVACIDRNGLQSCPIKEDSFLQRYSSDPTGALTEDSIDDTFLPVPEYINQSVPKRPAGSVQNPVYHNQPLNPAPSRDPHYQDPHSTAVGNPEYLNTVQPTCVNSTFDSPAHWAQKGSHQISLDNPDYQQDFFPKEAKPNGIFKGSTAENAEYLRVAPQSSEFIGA
Structure (SMILES),IC50 (EGFR Del19/T790M/C797S) [µM],GI50 [1] [µM],GI50 (BaF3-EGFR (WT) cells) [µM]
"COc1cc(N2C[C@@H](C)O[C@@H](C)C2)c(-c2cnn(C)c2)cc1Nc1nc(Nc2ccc3nccnc3c2P(C)(C)=O)c2cc[nH]c2n1 [Example 23, (6-((2-((4-((2s, 6R)-2,6-dimethyl-morpholino)-2-methoxy-5-(1-methyl-1H-pyrazol-4-yl)phenyl)amino)-7H-pyrrolo[2,3-d]pyrimidin-4-yl)amino)quinoxalin-5-yl)dimethyl-phosphine oxide]",≤ 0.05,≤ 0.05,> 0.1
"COc1cc(N2CCC(N3CCN(C)CC3)CC2)c(Cl)cc1Nc1nc(Nc2ccc3nccnc3c2P(C)(C)=O)c2cc[nH]c2n1 [Example 56, (6-((2-((5-chloro-2-methoxy-4-(4-(4-methylpiperazin-1-yl)piperidin-1-yl)phenyl)amino)-7H-pyrrolo[2,3-d]pyrimidin-4-yl)amino)quinoxalin-5-yl)dimethyl-phosphine oxide]",≤ 0.05,≤ 0.05,> 0.1
"COc1cc(OCCN(C)C)c(-c2cnn(C)c2)cc1Nc1nc(Nc2ccc3nccnc3c2P(C)(C)=O)c2cc[nH]c2n1 [Example 35, (6-((2-((4-(2-(dimethylamino)ethoxy)-2-methoxy-5-(1-methyl-1H-pyrazol-4-yl)phenyl)amino)-7H-pyrrolo[2,3-d]pyrimidin-4-yl)amino)quinoxalin-5-yl)dimethyl-phosphine oxide]",≤ 0.05,≤ 0.05,> 0.1
"Cn1nccc1-c1ccc(Nc2nc(Nc3ccc4nccnc4c3P(C)(C)=O)c3cc[nH]c3n2)c2c1OCCO2 [Example 131, dimethyl (6-((2-((8-(1-methyl-1H-pyrazol-5-yl)-2,3-dihydrobenzo [b][1,4]dioxin-5-yl)amino)-7H-pyrrolo[2,3-d]pyrimidin-4-yl)amino)quinoxalin-5-yl)phosphine oxide]",> 0.1,> 0.1,> 0.1
"CCOc1ccc(C(F)(F)F)cc1Nc1nc(Nc2ccc3nccnc3c2P(C)(C)=O)c2cc[nH]c2n1 [Example 69, (6-((2-((2-ethoxy-5-(trifluoromethyl)phenyl)amino)-7H-pyrrolo[2,3-d]pyrimidin-4-yl)amino)quinoxalin-5-yl)dimethyl-phosphine oxide]",> 0.1,> 0.1,> 0.1
"COc1cc(N2CCN(C(=O)C3(F)CC3)CC2)c(-c2cnn(C)c2)cc1Nc1nc(Nc2ccc3nccnc3c2P(C)(C)=O)c2cc[nH]c2n1 [Example 112, (4-(4-((4-((5-(dimethyl-phosphoryl)quinoxalin-6-yl)amino)-7H-pyrrolo[2,3-d]pyrimidin-2-yl)amino)-5-methoxy-2-(1-methyl-1H-pyrazol-4-yl)phenyl)piperazin-1-yl)(1-fluorocyclo-propyl) methanone]",0.05 to 0.1,≤ 0.05,> 0.1
"Cc1cc(Nc2nc(Nc3ccc4nccnc4c3P(C)(C)=O)c3cc[nH]c3n2)c(OCC(F)(F)F)cc1N1CCC(N2CCN(C)CC2)CC1 [Example 8, dimethyl (6-((2-((5-methyl-4-(4-(4-methylpiperazin-1-yl)piperidin-1-yl)-2-(2,2,2-trifluoroethoxy)phenyl)amino)-7H-pyrrolo[2,3-d]pyrimidin-4-yl)amino)quinoxalin-5-yl)phosphine oxide]",≤ 0.05,≤ 0.05,> 0.1
"CN1CCN(C2CCN(c3c(-c4cnn(C)c4)cc(Nc4nc(Nc5ccc6nccnc6c5P(C)(C)=O)c5cc[nH]c5n4)c4c3CCO4)CC2)CC1 [Example 117, dimethyl (6-((2-((5-(1-methyl-1H-pyrazol-4-yl)-4-(4-(4-methylpiperazin-1-yl)piperidin-1-yl)-2,3-dihydrobenzo-furan-7-yl)amino)-7H-pyrrolo[2,3-d]pyrimidin-4-yl)amino)quinoxalin-5-yl)phosphine oxide]",≤ 0.05,≤ 0.05,> 0.1
"COc1cc(N2CCC(N3CCN(C)CC3)CC2)c(-c2cnn(C)c2)cc1Nc1nc(Nc2ccc3nccnc3c2P(C)(C)=O)c2nc[nH]c2n1 [Example 105, (6-((2-((2-methoxy-5-(1-methyl-1H-pyrazol-4-yl)-4-(4-(4-methylpiperazin-1-yl)piperidin-1-yl)phenyl)amino)-9H-purin-6-yl)amino)quinoxalin-5-yl)dimethyl-phosphine oxide]",≤ 0.05,> 0.1,> 0.1
"CP(C)(=O)c1c(Nc2nc(Nc3cc([N+](=O)[O-])c(N4CCC(N5CCN(C6CC6)CC5)CC4)c4c3OCCO4)nc3[nH]ccc23)ccc2nccnc12 [Example 134, (6-((2-((8-(4-(4-cyclopropyl-piperazin-1-yl)piperidin-1-yl)-7-nitro-2,3-dihydrobenzo [b][1,4]dioxin-5-yl)amino)-7H-pyrrolo[2,3-d]pyrimidin-4-yl)amino)quinoxalin-5-yl)dimethyl-phosphine oxide]",≤ 0.05,> 0.1,0.05 to 0.1
"COc1cc(N2CCN(C3CCCC3)CC2)c(-c2cnn(C)c2)cc1Nc1nc(Nc2ccc3nccnc3c2P(C)(C)=O)c2cc[nH]c2n1 [Example 22, (6-((2-((4-(4-cyclopentyl-piperazin-1-yl)-2-methoxy-5-(1-methyl-1H-pyrazol-4-yl)phenyl)amino)-7H-pyrrolo[2,3-d]pyrimidin-4-yl)amino)quinoxalin-5-yl) dimethyl-phosphine oxide]",≤ 0.05,≤ 0.05,> 0.1
"Cn1cc(-c2cc(Nc3nc(Nc4ccc5nccnc5c4P(C)(C)=O)c4cc[nH]c4n3)ccc2N2CCOCC2)cn1 [Example 34, dimethyl (6-((2-((3-(1-methyl-1H-pyrazol-4-yl)-4-morpholino-phenyl)amino)-7H-pyrrolo[2,3-d]pyrimidin-4-yl)amino)quinoxalin-5-yl)phosphine oxide]",≤ 0.05,≤ 0.05,> 0.1
"COc1cc(N2CC3(COC3)C2)c(-c2cnn(C)c2)cc1Nc1nc(Nc2ccc3nccnc3c2P(C)(C)=O)c2cc[nH]c2n1 [Example 29, (6-((2-((2-methoxy-5-(1-methyl-1H-pyrazol-4-yl)-4-(2-oxa-6-azaspiro[3.3]heptan-6-yl)phenyl)amino)-7H-pyrrolo[2,3-d]pyrimidin-4-yl)amino)quinoxalin-5-yl)dimethyl-phosphine oxide]",≤ 0.05,> 0.1,> 0.1
"Cn1cc(-c2cc(Nc3nc(Nc4ccc5nccnc5c4P(C)(C)=O)c4cc[nH]c4n3)c(OCC(F)(F)F)cc2N2CCOCC2)cn1 [Example 2, dimethyl (6-((2-((5-(1-methyl-1H-pyrazol-4-yl)-4-morpholino-2-(2,2,2-trifluoroethoxy)phenyl)amino)-7H-pyrrolo[2,3-d]pyrimidin-4-yl)amino)quinoxalin-5-yl) phosphine oxide]",≤ 0.05,≤ 0.05,> 0.1
"COc1cc(N2C[C@H]3COC[C@H]3C2)c(-c2cnn(C)c2)cc1Nc1nc(Nc2ccc3nccnc3c2P(C)(C)=O)c2cc[nH]c2n1 [Example 41, (6-((2-((2-methoxy-5-(1-methyl-1H-pyrazol-4-yl)-4-((3aR,6aS)-tetrahydro-1H-furo[3,4-c]pyrrole-5(3H)-yl)phenyl)amino)-7H-pyrrolo[2,3-d]pyrimidin-4-yl)amino)quinoxalin-5-yl)dimethyl-phosphine oxide]",≤ 0.05,≤ 0.05,> 0.1
